The structures appear in SMILES notation.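 Compound exposure: 48 hours, 5 concentrations, 96-well plates. At the GI50, growth is halved. TGI: concentration producing complete growth inhibition.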

Common to all, as to assay: growth of human tumour cells (NCI), 48 h
The test system of test [1] is ACHN renal.
For test [2], the system named is MCF7 breast.
Test [3] concerns MOLT-4 leukemia.
The subject of test [4] is OVCAR-3 ovarian.
In test [5] the test system is HCT-116 colon.
The test system of test [6] is SK-MEL-28 melanoma.
For test [7], the system named is HCT-15 colon.
Test [8] has as its system DU-145 prostate.
Test [9] relates to COLO 205 colon.
Test [10] concerns OVCAR-8 ovarian.

For `Cc1cc(S(=O)(=O)N/C(=C(\C#N)C(=O)c2ccc(Cl)cc2)[n+]2ccc(N(C)C)cc2)c([S-])cc1Cl`, the TGI in test [1] was above 100 µM; in test [2], above 100 µM; in test [3], above 100 µM; in test [4], above 100 µM; in [5] it was 37.3 µM; in [6], above 100 µM. Also, the TGI in test [7], in test [8], in test [9] and in [10] was above 100 µM each time.
Regarding `CC(=O)NCCC1CN(C(=O)/C=C/I)c2ccccc21` (centres undefined), the TGI is 17.8 µM in test [1]; 2.87 µM in test [2]; above 64.6 µM in test [3]; 12.6 µM in test [4]; 14.3 µM in test [5]; 18.2 µM in test [6]. Further, the TGI in [7] was determined as 9.66 µM; in [8] it was 29.2 µM; in test [9] it was 14.1 µM; in [10], 25.4 µM.
Take `COc1ccc(C2=Nc3cc(C)c(C)cc3NC(c3ccccc3)C2)cc1` (centres undefined): the TGI in test [1], in [2], in test [3], in [4], in [5] and in test [6] was above 100 µM in each case. Also, the TGI in [7] was above 100 µM; in test [8], above 100 µM; in test [9], 37.6 µM; in test [10], above 100 µM.
Turning to `NS(=O)(=O)c1ccc(/C=C/c2ccc(F)cc2)cc1`, the GI50 in test [1] was 2.97 µM; in test [3], 12.9 µM; in test [7], 9.97 µM; in test [10], 15.2 µM. For the same compound, the TGI was 19.4 µM in test [1]; above 100 µM in [2]; above 100 µM in [3]; 57 µM in [4]; 50.3 µM in [5]; above 100 µM in test [6]. Further, the TGI is 33.3 µM in test [7], above 100 µM in test [8], above 100 µM in test [9] and 30 µM in [10].
In the case of `CN(C)c1nc(N)nc(CS)n1`, the TGI in test [1], in test [2], in test [3], in test [4], in test [5] and in test [6] was above 100 µM each time. Moreover, the TGI in test [7], in test [8], in test [9] and in test [10] was above 100 µM each time.
On to `Cc1ccc(OCC2OC(n3cnc4nc(N)nc(Cl)c43)CC2Oc2ccc(C)cc2)cc1` (centres undefined), for which the TGI in test [1] was 35 µM; in test [2], 49 µM; in [3] it was 52.7 µM; in [4], 41 µM; in test [5] it was above 100 µM; in [6], above 100 µM. Further, the TGI in test [7] was 59.3 µM; in test [8], 35.9 µM; in [9], 36.4 µM; in test [10] it was 50 µM.
Take `CN(C)c1ccc(/C(F)=C(F)/C(F)=C(F)/C(F)=C(\F)c2ccc(Br)cc2)cc1`: the TGI in [1] is above 100 µM; in [2], above 100 µM; in [3], above 79.6 µM; in test [4], above 60.5 µM; in test [5], above 25.5 µM; in [6] it was above 100 µM. Also, the TGI in [7] was above 100 µM; in test [8] it was above 63.7 µM; in test [9], 63.2 µM; in test [10], above 96 µM.
`COC(=O)C1CCC(=S)N1C(=O)c1ccccc1` (centres undefined): the TGI is above 100 µM in test [1]; above 100 µM in test [2]; 90.3 µM in test [3]; above 100 µM in test [4]; above 100 µM in [5]; above 100 µM in test [6]. In addition, the TGI in [7], in test [8], in [9] and in [10] was above 100 µM throughout.
On to `Cc1cccc(Nc2nn3c(=O)c4c5c(sc4nc3s2)CCCC5)c1`, for which the TGI in test [1], in test [2], in [3], in test [4], in test [5] and in test [6] was above 100 µM in each case. In addition, the TGI in [7], in [8], in test [9] and in test [10] was above 100 µM in each case.
With `CC1C(=O)N(c2ccccc2)NC12CCCc1ccccc12` (centres undefined), the TGI in test [1], in test [2], in test [3], in test [4], in test [5] and in [6] was above 100 µM throughout. The TGI in test [7], in test [8], in test [9] and in test [10] was above 100 µM in each case.
In the case of `Cc1cc(-c2nc3cc(F)ccc3s2)ccc1NC(=O)[C@@H](N)CCCCN`, the TGI in [1] is 19.3 µM; in test [2], 11.8 µM; in test [3], 7.24 µM; in [4] it was 22.5 µM; in test [5] it was 7.67 µM; in test [6], 34.6 µM. In addition, the TGI was 21 µM in test [7], 28.4 µM in test [8], 9.35 µM in test [9] and 11.2 µM in [10].
`CSCCC(N)C(=O)NCCNc1ccc(NCCNC(=O)C(N)CCSC)c2c1C(=O)c1ccccc1C2=O` (centres undefined): the TGI in test [1] came out at 5.45 µM; in test [2] it was 4.77 µM; in test [3] it was 4.23 µM; in test [4], 9.44 µM; in test [5], 2.16 µM; in [6], 3.17 µM. The TGI in test [7] is 16.3 µM; in test [8], 5.4 µM; in [9], 3.13 µM; in [10], 4.17 µM.
For the compound `OCC(O)C(O)C(O)C(O)c1nc2ccc(Cl)cc2[nH]1` (centres undefined), the TGI in [1], in test [2], in [3], in [4], in test [5] and in [6] was above 100 µM throughout. Also, the TGI in [7], in test [8], in test [9] and in test [10] was above 100 µM throughout.
As to `O=C1C(Cl)=C(OCCCl)C(=O)c2c(O)ccc(O)c21`, the TGI in [1] was 10.4 µM; in test [2], 5.19 µM; in test [3], 0.619 µM; in [4] it was 10.9 µM; in test [5] it was 2.97 µM; in test [6], 12.5 µM. The TGI in [7] was found to be 7.01 µM; in [8], 32.2 µM; in test [9] it was 3.26 µM; in [10] it was 47.6 µM.
`C[C@H](NC(=O)C(Cc1ccccc1)(Cc1ccc(O)cn1)NC(=O)c1ccccc1)c1ccccc1` (some centres undefined): the TGI in test [1] came out at 43.2 µM; in [2], 75.5 µM; in test [3], 84.9 µM; in test [4], 28.7 µM; in [5], 28.7 µM; in [6], 38.3 µM. Besides, the TGI was determined as 38.3 µM in [7], 35.5 µM in test [8], 35.1 µM in [9] and 42.1 µM in [10].
`Cc1cc(F)ccc1S(=O)(=O)Nc1cc(-c2c(O)ccc3ccccc23)c(O)c2ccccc12`: the GI50 in test [1] is 2.44 µM; in test [2] it was 2.42 µM; in test [3], 3.33 µM; in test [4], 2.67 µM; in [5], 2.7 µM; in test [6], 3.12 µM. Moreover, the GI50 in test [7] was 2.68 µM; in [8] it was 4.09 µM; in test [9], 2.08 µM; in test [10], 3.65 µM. The TGI in test [1] was found to be 8.03 µM; in [2] it was 25.6 µM; in test [3], 14 µM; in test [4] it was 10.3 µM; in test [5] it was 11.3 µM; in test [6], 9.74 µM. For the same compound, the TGI in test [7] was 11.4 µM; in [8], 14.4 µM; in [9], 4.94 µM; in [10] it was above 100 µM.
For the compound `CC(NC(=O)C(NC(=O)CNC(=O)OC(C)(C)C)C(C)C)C(=O)Oc1c(Cl)c(Cl)c(Cl)c(Cl)c1Cl` (centres undefined), the TGI in test [1] was 58.9 µM; in test [2] it was 74.1 µM; in test [3], above 100 µM; in [4], 28.5 µM; in [5] it was 31.2 µM; in [6], 71.8 µM. The TGI in test [7] was determined as 33.2 µM; in test [8], 49.3 µM; in [9] it was 43.2 µM; in test [10], 40.8 µM.
As for `COc1ccc(CC(N)c2ccc(OC)cc2)cc1` (centres undefined), the TGI in [1], in test [2], in [3], in test [4], in [5] and in test [6] was above 100 µM throughout. For the same compound, the TGI in test [7] was above 100 µM; in test [8], above 100 µM; in [9] it was 36.9 µM; in test [10], above 100 µM.
With `O=C(NCCCCCCCCCCCCNC(=O)Nc1cccc2ccccc12)Nc1cccc2ccccc12`, the TGI in test [1] was 27.1 µM; in test [2] it was 35.1 µM; in test [3], 42.2 µM; in test [4] it was 30.3 µM; in test [5] it was 34.3 µM; in test [6], 36.3 µM. The TGI stood at 36.8 µM in test [7], 70.9 µM in test [8], 44.1 µM in test [9] and 53.6 µM in [10].
Regarding `CSCSSC`, the TGI is above 100 µM in test [1]; above 100 µM in test [2]; 90.3 µM in test [3]; above 100 µM in test [4]; above 100 µM in test [5]; above 100 µM in test [6]. Besides, the TGI in [7], in test [8], in test [9] and in [10] was above 100 µM in each case.
For the compound `Cc1csc(NC23CC4CC(CC(C4)C2)C3)[n+]1C(P(=O)([O-])O)P(=O)(O)O` (centres undefined), the TGI in [1], in test [2], in test [3], in test [4], in test [5] and in test [6] was above 100 µM throughout. The TGI in test [7], in [8], in [9] and in test [10] was above 100 µM throughout.
For `CCCCCCCC/C=C\CCCCCCC/C=C1\C[C@](/C=C/C(=O)OC)(CO)OC1=O`, the TGI in [1] was found to be 7.9 µM; in test [2], 14.7 µM; in test [3], 10.6 µM; in test [4] it was 16.6 µM; in test [5] it was 6.26 µM; in test [6], 3.38 µM. In addition, the TGI came to 8.22 µM in [7], 24.6 µM in test [8], 5.02 µM in test [9] and 8.5 µM in test [10].
For the compound `N#CC1(C#N)NC(c2cccs2)C(C#N)(C#N)NC1c1cccs1` (centres undefined), the TGI in [1] was above 100 µM; in test [2], 51.8 µM; in test [3], 60.2 µM; in [4], 67.8 µM; in [5], above 100 µM; in [6], above 100 µM. Also, the TGI in test [7], in test [8], in test [9] and in test [10] was above 100 µM each time.
`Cc1ccc2c(=O)cc(-c3ccc(Cl)s3)[nH]c2n1`: the TGI in test [1] was above 100 µM; in test [2], above 100 µM; in [3] it was above 100 µM; in [4] it was above 100 µM; in [5] it was above 55.3 µM; in [6] it was above 100 µM. Further, the TGI was above 100 µM in test [7], above 100 µM in test [8], 28.8 µM in test [9] and above 53.8 µM in [10].
On to `CCCCOC(=O)C(NC(C(=O)OCCCC)c1cc(C(C)(C)C)c(O)c(C(C)(C)C)c1)c1cc(C(C)(C)C)c(O)c(C(C)(C)C)c1` (centres undefined), for which the TGI in [1], in test [2], in [3], in test [4], in test [5] and in test [6] was above 100 µM each time. Moreover, the TGI in test [7], in test [8], in test [9] and in test [10] was above 100 µM in each case.
In the case of `C=C[C@@H](C)[C@H](NS(=O)(=O)c1ccc(C)cc1)C(=O)OCC`, the TGI in test [1] is above 100 µM; in [2], 70.6 µM; in test [3], above 100 µM; in [4] it was 43.1 µM; in test [5], above 100 µM; in test [6] it was above 100 µM. Also, the TGI in test [7], in [8], in test [9] and in test [10] was above 100 µM in each case.

Values taken from PubChem BioAssay (NCI).
